Tested on: Vaccinia virus
Experiment: Antiviral activity against Vaccinia virus infected in primary rabbit kidney cells assessed as inhibition of virus-induced cytopathogenicity
Type: functional, Orthopoxvirus vaccinia

Row | SMILES | ID50
1 | N#Cc1cn([C@@H]2O[C@H](CO)[C@@H](O)[C@H]2O)c(=O)[nH]c1=O | >3.7 ×10⁻⁴ M
2 | N#Cc1cn([C@H]2C[C@H](O)[C@@H](CO)O2)c(=O)[nH]c1=O | 1.6 ×10⁻⁵ M
3 | O=c1[nH]c(=O)n([C@H]2C[C@H](O)[C@@H](CO)O2)cc1Br [BROXURIDINE] | 3.2 ×10⁻⁷ M
4 | O=c1[nH]c(=O)n([C@H]2C[C@H](O)[C@@H](CO)O2)cc1Cl [CHLORODEOXYURIDINE] | 7.6 ×10⁻⁷ M
5 | O=c1[nH]c(=O)n([C@H]2C[C@H](O)[C@@H](CO)O2)cc1F [FLOXURIDINE] | 4 ×10⁻⁷ M
6 | O=c1[nH]c(=O)n([C@H]2C[C@H](O)[C@@H](CO)O2)cc1I [IDOXURIDINE] | 1.1 ×10⁻⁶ M
7 | O=c1[nH]c(=O)n([C@H]2C[C@H](O)[C@@H](CO)O2)cc1C(F)(F)F [TRIFLURIDINE] | 3.3 ×10⁻⁷ M
8 | Nc1ncnc2c1ncn2[C@@H]1O[C@H](CO)[C@@H](O)[C@@H]1O [VIDARABINE] | 1.4 ×10⁻⁶ M
